Experimental data published in patent publication US6340783B1, “Rodent models of human amyloidoses” (University of Washington, priority 1992, dated 2002).
Read-outs that look alike come from different tables or passages of the source.

Tests used:
[1] = target: T1, Beta-Amyloid Protein (1-28) (Homo sapiens, UniProt P05067); experiment: Competitive inhibition of 125I-labeled HSPG binding to BAP (1-28) affinity column; conditions: for IC50: unlabeled competing ligand, BAP (1-28) affinity column, read-out: concentration at 50% inhibition of 125I-HSPG binding to BAP
T1 construct: residues 1-28 of BAP or residues 597-624 of BAPP; purchased Bachem Inc., Torrance, Calif; host or cells: synthetic peptide
Method: ^125I-labeled HSPGs in the presence of increasing concentrations of unlabeled GAGs, or large low density HSPG (from EHS sarcoma) were applied to an Affi-gel 10 column containing BAP (residues 1-28). After nonbound PGs were eluted from the column using TBS+0.1% TX-100, bound PGs were eluted with a step gradient using 15 ml of 1M MgCl2 in TBS+0.1% TX-100, followed by 15 ml of 4M MgCl2 in TBS+0.1% TX-100, and then 10 ml of 8M urea buffer containing 3M NaCl. […] Bars indicate standard error of the mean.
In order to test the specificity of HSPG binding to BAP (1-28), competitive inhibition experiments were also performed. 125-I labeled HSPGs (100,000-200,000 dpm) were mixed with (a) HSPG from EHS sarcoma (Mr approximately 700,000) (Kato et al., 1988) (gift of Dr. Koji Kimata, Aichi, Japan), (b) heparin from porcine intestinal mucosa (Mr˜11,000; Sigma, St. Louis, Mo.), (c) chondroitin-6-sulfate from shark cartilage (Mr˜59,000; Sigma, St. Louis, Mo.), or (d) […] dextran sulfate (Mr˜110,000; Pharmacia Fine Chemicals, Uppsala, Sweden). The samples were incubated on a rotator for 2 hours at room temperature and then applied to the BAP (1-28) column. Columns were run and eluted with step gradients (1 to 4 M MgCl2) as described above.
Purified iodinated HSPGs were combined with various concentrations of unlabeled competing ligands and applied to a BAP (1-28) affinity column (FIG. 10).

[2] = test system: β/A4 amyloid deposition in rat hippocampus; experiment: Rat infusion model of β/A4 amyloid deposition in hippocampus; assay type: in vivo
Method: For infusion studies, all reagents were dissolved and stored at 4° C. the night prior to surgery. β/A4 (residues 1-40; Bachem California Inc., Torrance, Calif.; Lot #ZJ209) was initially dissolved at 10 mg/ml in 35% acetonitrile (stock solution), with the final diluted concentration of acetonitrile less than 3% in animals infused with β/A4 or its vehicle (see below). Perlecan (basement membrane derived HSPG) and heparan sulfate (HS) GAGs were isolated and purified from the mouse Engelbreth-Holm-Swarm (EHS) sarcoma as described (6), and dissolved in sterile saline at 5 mg/ml and 10 mg/ml, respectively. Male Sprague-Dawley rats (250-300 gms; 3 months old; Harlan Sprague Dawley) were implanted with Alzet 2002 minipumps delivering the following solutions directly into hippocampus at a flow rate of 0.5 μl per hour for one week (7); 1) β/A4 (7.5 μl stock) & HSPG (92.5 μl stock), 6 animals; 2) β/A4 (7.5 μl stock) & HS GAGs (92.5 μl stock), 4 animals; 3) β/A4 (7.5 μl stock) & saline (92.5 μl), 6 animals; 4) HSPG only (100 μl), 4 animals; 5) HS GAGs only (100 μl), 4 animals; 6) saline only (100 μl), 4 animals; and 7) 35% acetonitrile (β/A4 vehicle, 7.5 μl) & saline (92.5 μl), 2 animals. High concentrations of these reagents were chosen to maximize possible effects following infusion into brain. The approximate quantity of β/A4 peptide infused into brain by the end of 1 week in each animal having β/A4 (1-40) as part of the infusate was 75 μg, at least 5 times the amount previously reported in rat models employing single acute injections (8, 9). After one week of continuous infusion, rats were sacrificed by overdose with pentobarbital and perfused with 100 ml of saline followed by 150 ml of 4% paraformaldehyde buffered with phosphate (pH 7.4), postfixed for 24 hours and transferred to phosphate buffered saline for paraffin embedding. Once embedded, consecutive 6 μm serial sections were cut and placed on poly-D-lysine coated slides. Two additional animals in the β/A4 only and the β/A4 & HSPG groups were processed for electron microscopy as described (10).
Detection of infused macromolecules was monitored using two polyclonal antibodies against synthetic β/A4 (either against β/A4 1-28 or 1-40) (13), and two monoclonal antibodies recognizing either HS GAGs (HK-249) (14) or the core protein of perlecan (HK-102) (15). Additionally, two polyclonal antibodies recognizing the core protein of perlecan (17) assessed effects of infused macromolecules (16) on endogenous brain HSPGs. Detection of other AD-like markers included Alz-50 antibody immunostaining (18), and silver staining by the modified Bielschowsky method (19). Possible inflammation-associated amyloid protein involvement was monitored by AA amyloid protein immunostaining (20). The presence of other cell types such as astrocytes was detected by immunostaining with a polyclonal antibody to glial fibrillary acidic protein (GFAP) (1:10,000 dilution; Dako), whereas microglia/macrophage infiltration was detected using a rat monoclonal antibody known as ED1 (1:2500 dilution; Serotec). For all immunostaining, negative controls consisted of using Tris-buffered saline (TBS) instead of the primary antibody, and/or preabsorption experiments using the primary antibody in the presence of excess antigen. In order to quantify possible staining and/or immunostaining differences between the various infusion groups, slides were scored blindly by two independent investigators as described (21) (Table 1; see FIG. 35).
7. Rats were anesthetized with pentobarbital (50 mg/kg) and a 27 gauge steel cannula was stereotactically implanted into the hippocampus using bregma as reference point (AP −4.8; ML 3.5; DV 4), and secured to the skull by machine screws and dental acrylic. The cannula was connected via a 15 cm coil of vinyl tubing to a model 2002 osmotic minipump (Alzet Inc.) placed subcutaneously beneath the shoulder blades. […]

[3] = target: basic fibroblast growth factor (Homo sapiens, UniProt P09038); conditions: mediated by heparan sulfate GAG chains; cited from earlier work
BAPP-695 = target: T2, BAPP-695 (Homo sapiens, UniProt P05067); conditions: single binding site; cited from earlier work
T2 construct: host or cells: baculovirus-derived

BAPP-751 = target: T3, BAPP-751 (Homo sapiens, UniProt P05067); conditions: single binding site; cited from earlier work
T3 construct: host or cells: baculovirus-derived

BAPP-770 = target: T4, BAPP-770 (Homo sapiens, UniProt P05067); conditions: single binding site; cited from earlier work
T4 construct: host or cells: baculovirus-derived

BAP (residues 1-28) = target: T5, BAP (residues 1-28) (Homo sapiens, UniProt P05067); experiment: Affinity column chromatography of labeled proteoglycans on BAP (1-28) Affi-gel 10 column; assay type: binding; conditions: after heparitinase/heparinase digestion
T5 construct: residues 1-28 of BAP or residues 597-624 of BAPP; purchased Bachem Inc., Torrance, Calif; host or cells: synthetic peptide
Method: Approximately 500,000 dpm of ^35S-sulfate labeled PGs isolated from the culture media of ECs were applied to Affi-gel 10 affinity columns containing approximately 0.45 mg of 1) residues 1-28 of BAP, 2) residues 410-429, a region of BAPP present in the extracellular domain, or 3) bovine serum albumin. The labeled PGs were left on the column for 1 hour, after which non-bound radiolabelled PGs were eluted with 25 ml (50 0.5 ml fractions) of TBS+0.1% TX-100 and collected on a fraction collector. Bound PGs were then eluted from the column with 15 mls of 4M MgCl2 in TBS+0.1% TX-100.
0.5 mg or 1.0 mg of ligands consisting of 1) BAP (1-28) (Bachem Inc., Torrance, Calif.), 2) a peptide corresponding to residues 410-429 of the BAPP (gift of Dr. Dennis Selkoe, Boston, U.S.A.) or 3) bovine serum albumin (BSA fraction V, Boehringer, Mannheim Biochemical) were dissolved initially in 400 μl of double distilled water to which was added an equal volume of 0.2 M HEPES buffer (pH 7.5) containing 160 mM calcium chloride. The ligand solutions were added to 0.8-1.0 ml of Affi-gel 10 (Biorad, Richmond, Calif.) and coupling was allowed to proceed for 4 hours at 4° C., after which 1/10 volume of IM ethanolamine (pH 8.0) was added and incubation continued for an additional 1-2 hours to block remaining unreacted ester groups. Gel coupled ligand was then transferred to Biorad Econo-columns and washed with TBS in 0.1% Triton-X 100. To assess the amount of bound ligand, soluble (nonbound) protein remaining in the wash buffer was assayed. The affinity columns coupled approximately 90% of ligand initially applied (i.e. 0.45 mg or 0.90 mg).
^35S-sulfate labeled PGs isolated from the culture media (360,000 dpm) of ECs and SMCs were applied to Affi-gel 10 columns containing 1) BAP (residues 1-28), 2) BAPP (residues 410-429) or 3) Bovine serum albumin. The labeled PGs were allowed to interact with the affinity gel for 1 hour (preliminary experiments indicated maximum binding efficiency at 1 hour) and non-bound radiolabelled PGs were eluted with 25 ml of TBS+0.1% Triton X-100 (TBS-TX 100). Bound PGs were eluted with either a single-step gradient using 15 mls of 4M MgCl2 in TBS-TX 100 or a linear gradient of 0 to 4M MgCl2 in TBS-TX 100. In some experiments, columns were further eluted with 15 ml of 8M urea in 50 mM Tris-HCl (pH 7.5), with 0.5% Triton X-100 and 3M NaCl. The radioactivity per fraction was determined by scintillation counting. Most experiments were repeated a minimum of three times. Recoveries of applied radioactivity from the affinity columns ranged from 80-95%.

fibronectin = fibronectin (Homo sapiens, UniProt P02751); conditions: via the core protein; cited from earlier work
[4] = test system: HSPGs in AA amyloidotic mouse spleen; experiment: In situ binding of BAP (1-28) to AA amyloidotic tissue sections
Text: Six micron sections of paraffin-embedded AA amyloidotic spleen and liver (gift of Dr. Robert Kisilevsky, Kingston, Canada) were used for the in situ binding studies. AA amyloid was induced in CBA/J female mice (6-8 weeks old) using amyloid enhancing factor and silver nitrate, as previously described (Axelrad et al., 1982; Snow and Kisilevsky, 1985).
Immunostaining of tissue sections was accomplished using the avidin-biotin-immunoperoxidase method, employing the appropriate biotin-labeled secondary antibodies, followed by incubation with avidin-conjugated horseradish peroxidase complex (Vector Labs, Burlingame, Calif.). Peroxidase activity was produced by treatment with 3,3-diaminobenzidine as previously described (Snow et al., 1988a). For immunocytochemical staining, the primary antibody was used initially through a series of dilutions to obtain the best specificity with the least background staining. Only results using the optimal dilutions of primary antibody are reported.
Paraffin sections of mouse AA amyloidotic liver or spleen (obtained 4 days after initial AEF+ silver nitrate induction) were treated overnight at 4° C. with a 0.3 mg/ml or 0.5 mg/ml solution of a peptide corresponding to the extracellular domain of BAP (residues 1-28 of BAP or residues 597-624 of BAPP) (Bachem Inc., Torrance, Calif.) in Tris-buffered saline (TBS). After 18 hours, non-bound BAP was removed by extensive washing in 4 changes of TBS. Bound-BAP was then detected by immunostaining tissue sections with either of two BAP polyclonal antibodies as described above. […] These treatments included: 1) 0.50 units/ml of chondroitin ABC lyase (Seikagaku Kogyo Co. Ltd., through ICN Biomedicals) in 0.1 M enriched Tris-acetate buffer (pH 8.0) at 37° C. for 6 hours (Saitoh et al., 1968), 2) a solution of 20% nitrous acid: 33% acetic acid (1:1, volume/volume) incubated at room temperature for 6 hours (Snow et al., 1987) and 3) 10 units/ml of heparinase I and heparitinase I (Sigma, St. Louis, Mo.) in 0.20 M Tris-HCl buffer (pH 7.0) with 20 mM calcium acetate added, at 37° C. for 6 hours. […]

Sequence of fibronectin (P02751 32-2477, species assumed): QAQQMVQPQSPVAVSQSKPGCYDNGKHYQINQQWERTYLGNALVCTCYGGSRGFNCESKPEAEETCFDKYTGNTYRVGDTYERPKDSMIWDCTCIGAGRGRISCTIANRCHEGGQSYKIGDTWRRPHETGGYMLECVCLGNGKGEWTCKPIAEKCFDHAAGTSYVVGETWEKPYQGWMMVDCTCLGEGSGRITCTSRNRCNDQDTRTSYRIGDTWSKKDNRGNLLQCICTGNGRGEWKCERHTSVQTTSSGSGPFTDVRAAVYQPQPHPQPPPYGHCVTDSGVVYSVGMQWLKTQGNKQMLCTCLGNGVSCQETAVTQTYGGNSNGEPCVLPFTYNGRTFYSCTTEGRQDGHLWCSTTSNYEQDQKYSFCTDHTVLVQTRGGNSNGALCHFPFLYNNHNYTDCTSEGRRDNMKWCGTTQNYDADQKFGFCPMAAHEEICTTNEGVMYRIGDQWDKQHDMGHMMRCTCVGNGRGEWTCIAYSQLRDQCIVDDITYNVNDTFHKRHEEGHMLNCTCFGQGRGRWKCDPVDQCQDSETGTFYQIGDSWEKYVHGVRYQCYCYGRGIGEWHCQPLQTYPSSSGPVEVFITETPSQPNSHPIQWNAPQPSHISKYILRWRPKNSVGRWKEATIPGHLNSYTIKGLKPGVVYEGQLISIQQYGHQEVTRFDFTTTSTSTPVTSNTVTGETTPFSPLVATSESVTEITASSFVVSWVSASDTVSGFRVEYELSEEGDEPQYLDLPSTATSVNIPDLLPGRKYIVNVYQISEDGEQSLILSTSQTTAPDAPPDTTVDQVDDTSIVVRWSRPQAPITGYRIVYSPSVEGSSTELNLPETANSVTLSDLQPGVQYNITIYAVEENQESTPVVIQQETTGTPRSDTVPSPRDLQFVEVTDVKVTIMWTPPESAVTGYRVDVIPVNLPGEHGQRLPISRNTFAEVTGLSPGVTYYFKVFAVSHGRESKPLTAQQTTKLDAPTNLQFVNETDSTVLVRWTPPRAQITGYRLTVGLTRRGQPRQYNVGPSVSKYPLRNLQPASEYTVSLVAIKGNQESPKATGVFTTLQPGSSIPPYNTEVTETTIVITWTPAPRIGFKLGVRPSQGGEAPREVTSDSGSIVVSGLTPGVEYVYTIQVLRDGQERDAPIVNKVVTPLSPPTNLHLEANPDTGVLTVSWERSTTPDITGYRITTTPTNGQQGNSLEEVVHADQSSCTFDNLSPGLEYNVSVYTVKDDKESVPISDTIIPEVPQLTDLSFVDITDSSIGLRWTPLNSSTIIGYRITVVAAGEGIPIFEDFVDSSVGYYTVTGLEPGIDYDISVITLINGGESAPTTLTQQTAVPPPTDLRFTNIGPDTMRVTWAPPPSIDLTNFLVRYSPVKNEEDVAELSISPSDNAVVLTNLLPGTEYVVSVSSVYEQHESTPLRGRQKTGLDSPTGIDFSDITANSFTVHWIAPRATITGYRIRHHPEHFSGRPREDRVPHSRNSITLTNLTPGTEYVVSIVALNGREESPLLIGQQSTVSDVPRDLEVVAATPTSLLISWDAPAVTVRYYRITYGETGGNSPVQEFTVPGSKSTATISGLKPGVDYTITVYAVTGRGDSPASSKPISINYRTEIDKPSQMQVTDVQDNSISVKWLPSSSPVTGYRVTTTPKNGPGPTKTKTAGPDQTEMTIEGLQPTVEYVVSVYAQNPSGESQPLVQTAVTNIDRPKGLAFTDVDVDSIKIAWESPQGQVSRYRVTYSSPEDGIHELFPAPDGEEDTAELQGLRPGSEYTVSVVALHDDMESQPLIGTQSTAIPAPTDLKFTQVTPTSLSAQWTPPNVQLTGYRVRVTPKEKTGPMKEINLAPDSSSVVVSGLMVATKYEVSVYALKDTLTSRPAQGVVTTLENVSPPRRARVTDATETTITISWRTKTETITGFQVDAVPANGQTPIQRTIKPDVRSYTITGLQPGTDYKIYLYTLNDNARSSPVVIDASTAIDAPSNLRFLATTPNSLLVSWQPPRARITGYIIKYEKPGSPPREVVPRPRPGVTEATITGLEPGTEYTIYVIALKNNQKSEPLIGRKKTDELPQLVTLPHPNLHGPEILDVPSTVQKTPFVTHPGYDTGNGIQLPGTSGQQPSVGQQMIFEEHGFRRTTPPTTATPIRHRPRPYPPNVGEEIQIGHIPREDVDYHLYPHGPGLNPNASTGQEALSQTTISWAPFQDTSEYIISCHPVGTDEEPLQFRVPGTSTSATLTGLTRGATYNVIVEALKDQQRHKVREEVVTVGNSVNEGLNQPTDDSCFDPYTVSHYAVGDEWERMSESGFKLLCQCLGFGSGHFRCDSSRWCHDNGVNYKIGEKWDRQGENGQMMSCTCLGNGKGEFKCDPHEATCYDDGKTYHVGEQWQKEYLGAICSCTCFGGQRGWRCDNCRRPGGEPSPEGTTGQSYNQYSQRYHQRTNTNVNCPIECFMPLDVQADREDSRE
Sequence of basic fibroblast growth factor (P09038 143-288, species assumed): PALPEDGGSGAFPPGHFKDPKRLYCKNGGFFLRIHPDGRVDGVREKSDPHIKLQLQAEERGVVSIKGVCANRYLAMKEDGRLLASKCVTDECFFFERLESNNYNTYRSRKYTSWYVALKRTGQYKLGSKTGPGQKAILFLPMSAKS

EHS basement-membrane HSPG: basement membrane derived heparan sulfate proteoglycan (perlecan) from mouse Engelbreth-Holm-Swarm sarcoma, Mr approximately 700,000
inhibition of binding of 125I-labeled HSPGs to the BAP (in words) ([1]; listed as EHS HSPG): more effective competitor
inhibition of binding of 125I-labeled HSPGs to the BAP (in words) ([1]; listed as isolated basement membrane HSPG): strongly inhibited
IC50 [1]: < 1000 nM
Alz-50 immunostaining adjacent to infusion site ([2]; 1 week infusion): Lack
Kd [3]: 30000 nM
Kd (BAPP-695): 0.9 nM
Kd (BAPP-751): 10 nM
Kd (BAPP-770): 9 nM

chondroitin-6-sulfate [reference compound]
inhibition of binding of 125I-labeled HSPGs to the BAP (in words) [1]: not
competition for binding of 125I-labeled HSPG to BAP ([1]; at all concentrations except 100 uM): unable to compete

heparin [reference compound]
IC50 [1]: 10000 nM

heparitinase-digested ^125I-labeled HSPGs: 125I-labeled HSPG digested with a heparitinase/heparinase mixture (core protein)
HSPGs still able to bind to the BAP column in comparison to undigested controls (BAP (residues 1-28)): 61%

high Mr HSPG of human lung fibroblasts: high Mr HSPG of human lung fibroblasts (Heremans et al. 1990)
Kd (fibronectin): 2 nM

synthetic BAP (residues 1-28): peptide corresponding to the extracellular domain of BAP (residues 1-28 of BAP or 597-624 of BAPP), Bachem
BAP immunoreactivity at sites of HSPG accumulation after peptide pretreatment ([4]; sections pretreated overnight at 4° C. with peptide): strong positive immunoreactivity
change in BAP immunostaining ([4]; sections pretreated with acetic acid or chondroitin ABC lyase): little to no decrease
change in BAP immunoreactivity ([4]; sections pretreated with nitrous acid or heparitinase/heparinase): some loss

β/A4 (1-40): synthetic β/A4 residues 1-40; Bachem California Inc.
HSPG core protein immunostaining score versus groups where HSPG was part of the infusate ([2]; 1-week infusion groups): not significantly different
scoring of congo red staining ([2]; 1-week infusion groups): significant increase
scoring of thioflavin S fluorescence ([2]; 1-week infusion groups): significant increase
animals demonstrating deposition of congophilic amyloid material in brain ([2]; 1 week continuous infusion into hippocampus): 4 of 6
animals with (endogenous) HSPG immunostaining ([2]; 1 week, HSPG not part of the infusate): four
